Here are results for four compounds from US4803220A, “Pharmaceutical agents” (Imperial Chemical Industries PLC, priority 1984, dated 1989).

Test [1] concerns Male rats (Alderley Park strain). The test can be described thus: U46619 induced hypertensive effect in anaesthetised rats. The class given is in vivo, rat. Here is the method:
(d) Male rats (Alderley Park strain) are anaesthetised with sodium pentobarbital and blood pressure is monitored at the carotid artery. The TXA2 mimetic agent known as U46619 is administered intravenously via the jugular vein and an ED50 (dose necessary to produce 50% of the maximum hypertensive effect) is established (n=3). The ED50 for U46619 is approximately 5 μg/kg. The test compound is then administered either intravenously via the jugular vein or orally via a cannula directly into the stomach and the animal challenged with an ED50 dose of U46619, five minutes after dosing with test compound and then successively every ten minutes until the hypertensive effect of U46619 is no longer blocked.

The subject of another test is guinea-pig. The test can be described thus: bronchoconstriction test, Konzett-Rossler guinea-pig model, U46619 induced. The class given is in vivo. To be noted: for reduction (inhibition) of bronchoconstriction: 0.5 mg./kg. p.o., 2.5 hours after administration, guinea-pig, U46619 i.v. How it is done:
(c) a bronchoconstriction test involving measuring the inhibition by a test compound of the bronchoconstriction induced in the Konzett-Rossler guinea-pig model (as modified by Collier and James, Brit. J. Pharmacol., 1967, 30, 283-307) by intravenous administration of the TXA2 mimetic agent, U46619 at 1-1.9 μg/kg.

The next test relates to dog platelets. The test can be described thus: ex vivo U46619 induced blood platelet aggregation after oral dosing, dogs. The class given is in vivo. Particulars: for inhibition of U46619 induced aggregation: 12 hours after oral administration to dogs at 2.5 mg./kg. The text has this:
(§1) (e) For example in the rabbit, arterial blood samples are taken by standard techniques into 3.8% w/v solution of trisodium citrate as anti-coagulant (1 part citrate: 9 parts blood) and then centrifuged first at 150 g, and then at 1000 g, to prepare platelet rich and platelet poor plasma fractions. These fractions are then used to calibrate an instrument for measuring light transmittance and thus the amount of platelet aggregation. The extent of platelet aggregation following addition of the TXA2 mimetic agent U46619 (final concentrations 0.2-2.2 μg./ml.) to the platelet rich plasma fraction is then determined, and the value of maximum aggregation in response to each concentration of U46619 is recorded. The test animals are then dosed orally with the test compound, and arterial blood samples are withdrawn at intervals after dosing. The platelet rich plasma fraction is prepared and U46619 added as above, and the extent of aggregation assessed by measuring the light transmittance of the sample. This value is compared with that obtained from the same animal before dosing, so that a measure of the extent of inhibition of U46619 induced blood platelet aggregation is obtained.
A similar procedure is used in rats and guinea pigs except that blood samples are not taken prior to dosing but a control value is obtained from a group of undosed animals. When the aggregation of dog platelets is being studied, it is necessary to use a predetermined, threshold concentration of the platelet aggregant adenosine diphosphate (about 0.4-1.2×10^-6 M) together with the TXA2 mimetic agent, U46619.

Test [2] deals with citrated, platelet rich, human plasma. Kind of test: blood platelet aggregation test, U46619 induced aggregation of platelet rich plasma. To be noted: inhibition of aggregation of human platelet rich plasma induced by U46619 (50-250 ng/ml). It is filed as cell-based. How it is done:
(b) a blood platelet aggregation test based on that described by Born (Nature, 1962, 194, 927-929) and involving measuring the inhibition by a test compound of aggregation of citrated, platelet rich, human plasma induced by a sub-maximal concentration (in the range 50-250 ng/ml.) of U46619; and […]

Another test relates to blood platelets. The test can be described thus: ex vivo U46619 induced blood platelet aggregation after oral dosing, rats. To be noted: 6.5 hours after oral administration to rats at 10 mg./kg. The class given is in vivo, rat.
Source text: as §1
A similar procedure is used in rats and guinea pigs except that blood samples are not taken prior to dosing but a control value is obtained from a group of undosed animals. […]

Usually ED50 stands for the midpoint of the dose-response relation. Consider `CCCCC[C@H](O)/C=C/[C@@H]1[C@@H](C/C=C\CCCC(=O)O)[C@H]2CO[C@@H]1C2` [Example U46619], for which the ED50 in test [1] (Rattus norvegicus, iv, U46619 intravenously via the jugular vein, anaesthetised rats, n=3, read-out: ED50 (dose necessary to produce 50% of the maximum hypertensive effect)) is ~5 µg/kg.

As for `O=C(O)CCC/C=C\C[C@@H]1CO[C@H](C(F)(F)F)O[C@@H]1c1ccccc1` (relative stereo) [Q, 5(Z)-7-([2,4,5-cis]-4-phenyl-2-trifluoromethyl-1,3-dioxan-5-yl)heptenoic acid], the “reduction (inhibition) of bronchoconstriction” value (from here on “reduction (inhibition)”) in the test with guinea-pig is recorded as “no significant inhibition”. Besides, in the test with dog platelets (some 4 hours after an oral dose of 75 mg./kg. in dogs), the “maximal inhibition of platelet aggregation” value was found to be 23%.

As for `CC1(C)OC[C@@H](C/C=C\CCCC(=O)O)[C@@H](c2ccccc2O)O1` (relative stereo) [P, 5(Z)-7-(4-o-hydroxyphenyl-2,2-dimethyl-1,3-dioxan-cis-5-yl)heptenoic acid], the “reduction (inhibition)” value in the test on guinea-pig turned out to be 57%. The “inhibition of U46619 induced aggregation” value in the test with dog platelets is 15%. In the test with dog platelets (some 3 hours after an oral dose of 2.5 mg./kg. in dogs), the “maximal inhibition of platelet aggregation” value came to 93%.

What is called IC50 is the concentration at which inhibition is half-maximal. A higher IC50 goes with weaker potency. Compound `O=C(O)CCC/C=C\C[C@@H]1CO[C@H](C(F)(F)F)O[C@@H]1c1ccccc1O` (relative stereo) [formula I, 5(Z)-7-([2,4,5-cis]-4-o-hydroxyphenyl-2-trifluoromethyl-1,3-dioxan-5-yl)heptenoic acid] displayed an IC50 in test [2] of 7.78 ± 1.6 ng/mL. Moreover, the inhibition of bronchoconstriction in the test with guinea-pig (0.5 mg./kg. oral, 3 hours after dosing (as restated)) was ~95%. Further, the “reduction (inhibition)” value in the test with guinea-pig was ~95%. Moreover, the “protection from blood pressure rise induced by U46619” value in test [1] (3 hours after oral administration at 5 mg./kg., rats) is “essentially complete protection”. The results for the “inhibition of U46619 induced aggregation” value in the test with dog platelets and in the test with blood platelets were 95% and 90%, respectively. Besides, the “inhibition of U46619 induced platelet aggregation (in words)” value in the test on dog platelets (for up to 12 hours following an oral dose of 2.5 mg./kg. in dogs) is on record as “essentially complete inhibition”.
